Results as given in patent US9957263B2, “Bromodomain inhibitors” (AbbVie Inc., priority 2013, dated 2018).

What was measured:
BRD4 (BDI_K57-E168) = BRD4 (BDI_K57-E168) (Homo sapiens (Human), UniProt O60885); experiment: TR-FRET bromodomain binding assay, BRD4 first bromodomain; details: His-tagged BD1, Alexa647-labeled probe 100 nM
Method in brief: (§1)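 Affinity for each isolated His-tagged domain was measured as competition with a fluorescent Alexa647 BET-inhibitor probe in a TR-FRET format at pH 6.0, 1 h room temperature incubation. Ki values were calculated from fitted IC50s, probe Kd and probe level (100 nM BDI, 30 nM BDII).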

BRD4 (BDII_E352-M457) = BRD4 (BDII_E352-M457) (Homo sapiens (Human), UniProt O60885); experiment: TR-FRET bromodomain binding assay, BRD4 second bromodomain; details: His-tagged BD2, Alexa647-labeled probe 30 nM
Method in brief: as §1

| Ki (BRD4 (BDI_K57-E168)) [nM] | Ki (BRD4 (BDII_E352-M457)) [nM] | Compound |
| --- | --- | --- |
| 4.3 | 1.4 | CN(C)CCCOc1ccc(CNc2cccc(Oc3ccc(S(C)(=O)=O)cc3-c3cn(C)c(=O)c4[nH]ccc34)c2)cc1 [Example 74, 4-{2-[3-({4-[3-(dimethylamino)propoxy]benzyl}amino)phenoxy]-5-(methylsulfonyl)phenyl}-6-methyl-1,6-dihydro-7H-pyrrolo[2,3-c]pyridin-7-one] |
| 8.5 | 2.9 | CN(C)c1cccc(CNc2cccc(Oc3ccc(S(C)(=O)=O)cc3-c3cn(C)c(=O)c4[nH]ccc34)c2)c1 [Example 75, 4-[2-(3-{[3-(dimethylamino)benzyl]amino}phenoxy)-5-(methylsulfonyl)phenyl]-6-methyl-1,6-dihydro-7H-pyrrolo[2,3-c]pyridin-7-one] |
| 3.3 | 1.1 | Cn1cc(-c2cc(S(C)(=O)=O)ccc2Oc2cccc(NCc3ccc4c(c3)OCCO4)c2)c2cc[nH]c2c1=O [Example 76, 4-[2-{3-[(2,3-dihydro-1,4-benzodioxin-6-ylmethyl)amino]phenoxy}-5-(methylsulfonyl)phenyl]-6-methyl-1,6-dihydro-7H-pyrrolo[2,3-c]pyridin-7-one] |
| 11 | 2.8 | Cn1cc(-c2cc(S(C)(=O)=O)ccc2Oc2cccc(NCC3CCOC3)c2)c2cc[nH]c2c1=O (stereo not shown) [Example 77, 6-methyl-4-[5-(methylsulfonyl)-2-{3-[(tetrahydrofuran-3-ylmethyl)amino]phenoxy}phenyl]-1,6-dihydro-7H-pyrrolo[2,3-c]pyridin-7-one] |
| 0.9 | 0.6 | CC(=O)Nc1ccc(CNc2cccc(Oc3ccc(S(C)(=O)=O)cc3-c3cn(C)c(=O)c4[nH]ccc34)c2)cc1 [Example 78, N-{4-[({3-[2-(6-methyl-7-oxo-6,7-dihydro-1H-pyrrolo[2,3-c]pyridin-4-yl)-4-(methylsulfonyl)phenoxy]phenyl}amino)methyl]phenyl}acetamide] |
| 7.8 | 2.7 | COc1ccc(CNc2cccc(Oc3ccc(S(C)(=O)=O)cc3-c3cn(C)c(=O)c4[nH]ccc34)c2)cc1 [Example 79, 4-[2-{3-[(4-methoxybenzyl)amino]phenoxy}-5-(methylsulfonyl)phenyl]-6-methyl-1,6-dihydro-7H-pyrrolo[2,3-c]pyridin-7-one] |
| 19 | 4.6 | Cn1cc(-c2cc(S(C)(=O)=O)ccc2Oc2cccc(NCC3CC3)c2)c2cc[nH]c2c1=O [Example 80, 4-[2-{3-[(cyclopropylmethyl)amino]phenoxy}-5-(methylsulfonyl)phenyl]-6-methyl-1,6-dihydro-7H-pyrrolo[2,3-c]pyridin-7-one] |
| 35 | 10 | Cn1cc(-c2cc(S(C)(=O)=O)ccc2Oc2cccc(NCCC3CCCC3)c2)c2cc[nH]c2c1=O [Example 81, 4-[2-{3-[(2-cyclopentylethyl)amino]phenoxy}-5-(methylsulfonyl)phenyl]-6-methyl-1,6-dihydro-7H-pyrrolo[2,3-c]pyridin-7-one] |
| 39 | 8.5 | CCS(=O)(=O)c1ccc(Oc2ccc(Cl)cc2C#CCN2CCOCC2)c(-c2cn(C)c(=O)c3[nH]ccc23)c1 [Example 82, 4-[2-{4-chloro-2-[3-(morpholin-4-yl)prop-1-yn-1-yl]phenoxy}-5-(ethylsulfonyl)phenyl]-6-methyl-1,6-dihydro-7H-pyrrolo[2,3-c]pyridin-7-one] |
| 5.3 | 3.5 | CCS(=O)(=O)c1ccc(Oc2ccc(Cl)cc2CCCN2CCOCC2)c(-c2cn(C)c(=O)c3[nH]ccc23)c1 [Example 83, 4-[2-{4-chloro-2-[3-(morpholin-4-yl)propyl]phenoxy}-5-(ethylsulfonyl)phenyl]-6-methyl-1,6-dihydro-7H-pyrrolo[2,3-c]pyridin-7-one] |
| 4.7 | 8.9 | Cn1cc(-c2cc(S(C)(=O)=O)ccc2NC2CCN(S(=O)(=O)c3ccccc3)CC2)c2cc[nH]c2c1=O [Example 84, 6-methyl-4-[5-(methylsulfonyl)-2-{[1-(phenylsulfonyl)piperidin-4-yl]amino}phenyl]-1,6-dihydro-7H-pyrrolo[2,3-c]pyridin-7-one] |
| 8 | 60 | CN(C)CC(=O)N1CCC(Nc2ccc(S(C)(=O)=O)cc2-c2cn(C)c(=O)c3[nH]ccc23)CC1 [Example 85, 4-[2-({1-[(dimethylamino)acetyl]piperidin-4-yl}amino)-5-(methylsulfonyl)phenyl]-6-methyl-1,6-dihydro-7H-pyrrolo[2,3-c]pyridin-7-one] |
| 24 | 75 | CSCCCN1CCC(Nc2ccc(S(C)(=O)=O)cc2-c2cn(C)c(=O)c3[nH]ccc23)CC1 [Example 86, 6-methyl-4-[2-({1-[3-(methylsulfanyl)propyl]piperidin-4-yl}amino)-5-(methylsulfonyl)phenyl]-1,6-dihydro-7H-pyrrolo[2,3-c]pyridin-7-one] |
| 21 | 34 | CC(=O)Nc1ccc(CN2CCC(Nc3ccc(S(C)(=O)=O)cc3-c3cn(C)c(=O)c4[nH]ccc34)CC2)cc1 [Example 87, N-{4-[(4-{[2-(6-methyl-7-oxo-6,7-dihydro-1H-pyrrolo[2,3-c]pyridin-4-yl)-4-(methylsulfonyl)phenyl]amino}piperidin-1-yl)methyl]phenyl}acetamide] |
| 4.9 | 23 | COc1cc(CN2CCC(Nc3ccc(S(C)(=O)=O)cc3-c3cn(C)c(=O)c4[nH]ccc34)CC2)cc(OC)c1OC [Example 88, 6-methyl-4-[5-(methylsulfonyl)-2-{[1-(3,4,5-trimethoxybenzyl)piperidin-4-yl]amino}phenyl]-1,6-dihydro-7H-pyrrolo[2,3-c]pyridin-7-one] |
| 22 | 44 | Cn1cc(-c2cc(S(C)(=O)=O)ccc2NC2CCN(Cc3cccs3)CC2)c2cc[nH]c2c1=O [Example 89, 6-methyl-4-[5-(methylsulfonyl)-2-{[1-(thiophen-2-ylmethyl)piperidin-4-yl]amino}phenyl]-1,6-dihydro-7H-pyrrolo[2,3-c]pyridin-7-one] |
| 14 | 25 | CN(C)CCCOc1ccc(CN2CCC(Nc3ccc(S(C)(=O)=O)cc3-c3cn(C)c(=O)c4[nH]ccc34)CC2)cc1 [Example 90, 4-{2-[(1-{4-[3-(dimethylamino)propoxy]benzyl}piperidin-4-yl)amino]-5-(methylsulfonyl)phenyl}-6-methyl-1,6-dihydro-7H-pyrrolo[2,3-c]pyridin-7-one] |
| 5 | 7.5 | CSCC(=O)N1CCC(Nc2ccc(S(C)(=O)=O)cc2-c2cn(C)c(=O)c3[nH]ccc23)CC1 [Example 91, 6-methyl-4-[2-({1-[(methylsulfanyl)acetyl]piperidin-4-yl}amino)-5-(methylsulfonyl)phenyl]-1,6-dihydro-7H-pyrrolo[2,3-c]pyridin-7-one] |
| 15 | 33 | COc1ccc(CCC(=O)N2CCC(Nc3ccc(S(C)(=O)=O)cc3-c3cn(C)c(=O)c4[nH]ccc34)CC2)c(OC)c1OC [Example 92, 6-methyl-4-[5-(methylsulfonyl)-2-({1-[3-(2,3,4-trimethoxyphenyl)propanoyl]piperidin-4-yl}amino)phenyl]-1,6-dihydro-7H-pyrrolo[2,3-c]pyridin-7-one] |
| 19 | 24 | Cn1cc(-c2cc(S(C)(=O)=O)ccc2NC2CCN(C(=O)C3(C(N)=O)CC3)CC2)c2cc[nH]c2c1=O [Example 93, 1-[(4-{[2-(6-methyl-7-oxo-6,7-dihydro-1H-pyrrolo[2,3-c]pyridin-4-yl)-4-(methylsulfonyl)phenyl]amino}piperidin-1-yl)carbonyl]cyclopropanecarboxamide] |
| 30 | 20 | COC1CCC(C(=O)N2CCC(Nc3ccc(S(C)(=O)=O)cc3-c3cn(C)c(=O)c4[nH]ccc34)CC2)CC1 (stereo not shown) [Example 94, 4-[2-({1-[(4-methoxycyclohexyl)carbonyl]piperidin-4-yl}amino)-5-(methylsulfonyl)phenyl]-6-methyl-1,6-dihydro-7H-pyrrolo[2,3-c]pyridin-7-one] |
| 22 | 16 | COCC(=O)N1CCC(Nc2ccc(S(C)(=O)=O)cc2-c2cn(C)c(=O)c3[nH]ccc23)CC1 [Example 95, 4-[2-{[1-(methoxyacetyl)piperidin-4-yl]amino}-5-(methylsulfonyl)phenyl]-6-methyl-1,6-dihydro-7H-pyrrolo[2,3-c]pyridin-7-one] |
| 17 | 21 | CN1CCN(CC(=O)N2CCC(Nc3ccc(S(C)(=O)=O)cc3-c3cn(C)c(=O)c4[nH]ccc34)CC2)CC1 [Example 96, 6-methyl-4-[2-({1-[(4-methylpiperazin-1-yl)acetyl]piperidin-4-yl}amino)-5-(methylsulfonyl)phenyl]-1,6-dihydro-7H-pyrrolo[2,3-c]pyridin-7-one] |
| 10 | 28 | Cn1cc(-c2cc(S(C)(=O)=O)ccc2NC2CCN(C(=O)CN3CCCC3)CC2)c2cc[nH]c2c1=O [Example 97, 6-methyl-4-[5-(methylsulfonyl)-2-{[1-(pyrrolidin-1-ylacetyl)piperidin-4-yl]amino}phenyl]-1,6-dihydro-7H-pyrrolo[2,3-c]pyridin-7-one] |
| 14 | 20 | COCCOCC(=O)N1CCC(Nc2ccc(S(C)(=O)=O)cc2-c2cn(C)c(=O)c3[nH]ccc23)CC1 [Example 98, 4-[2-({1-[(2-methoxyethoxy)acetyl]piperidin-4-yl}amino)-5-(methylsulfonyl)phenyl]-6-methyl-1,6-dihydro-7H-pyrrolo[2,3-c]pyridin-7-one] |
| 12 | 28 | Cn1cc(-c2cc(S(C)(=O)=O)ccc2NC2CCN(C(=O)CCN3CCOCC3)CC2)c2cc[nH]c2c1=O [Example 99, 6-methyl-4-[5-(methylsulfonyl)-2-({1-[3-(morpholin-4-yl)propanoyl]piperidin-4-yl}amino)phenyl]-1,6-dihydro-7H-pyrrolo[2,3-c]pyridin-7-one] |
